# From patent publication US11091496B2, “Opioid ketal compounds and uses thereof” (priority 2013, dated 2021)
# Where two headings read alike, the source gives them in different places.
# Tests used:
# [1] = Hydrolysis in Simulated Gastric Fluid (SGF) at 37° C., LC/MS; conditions: for Oxycodone, Ketal A-D in hydrolysis mixture: oxycodone 2,4-pentanediol ketal isomers + unreacted oxycodone, 2 mg/nil, SGF 37° C.; for Hydrolysis in SGF: hydrolyzed in 6.75 hours
# [2] = format: physicochemical; conditions: for time to almost complete hydrolysis: 0.1N HCl 37° C., FIG. 10; for % Oxycodone, % IVA-IVD in hydrolysis mixture: total 1 mg/ml; for % Oxycodone, % IVA-IVD in hydrolysis mixture / % IVC in hydrolysis mixture / % Oxycodone, % IVD in hydrolysis mixture: 0.1 N HCl 37° C.; for relative rate of hydrolysis: comparison of stereoisomers; for % IVC in hydrolysis mixture: isomer IVC tested separately; for % IVC in hydrolysis mixture / % Oxycodone, % IVD in hydrolysis mixture: 1 mg/ml, normalized; for % Oxycodone, % IVD in hydrolysis mixture: isomer IVD tested separately
# [3] = unreacted oxycodone + four isomers of Formula IV, 1 mg/ml, 5% acetic acid 100° C.
# [4] = Ketal hydrolysis at varying pH, buffers at 37° C.; conditions: 1 mg/ml; for hydrolysis of the ketal: Table 13b, 37° C.
compound,measurement,setting,value
"COc1ccc2c3c1OC1C4(CCC5(O)C(C2)N(C)CCC315)OC(C)CC(C)O4 (stereo not drawn) [IVB, oxycodone 2S,4R-pentanediol ketal]","Oxycodone, Ketal A-D in hydrolysis mixture",[1]; 0 h,10.3
same,"Oxycodone, Ketal A-D in hydrolysis mixture",[1]; 0.58 h,9.8
same,"Oxycodone, Ketal A-D in hydrolysis mixture",[1]; 1.25 h,10.4
same,"Oxycodone, Ketal A-D in hydrolysis mixture",[1]; 2 h,9.7
same,"Oxycodone, Ketal A-D in hydrolysis mixture",[1]; 3 h,10.2
same,"Oxycodone, Ketal A-D in hydrolysis mixture",[1]; 4 h,9.1
COc1ccc2c3c1OC1C4(CCC5[C@@H](C2)N(C)CC[C@@]351)OCCO4 (some centres unmarked),Hydrolysis in SGF,[1],~2% hydrolyzed in 6.75 hours
COc1ccc2c3c1OC1C4(CCC5(O)[C@@H](C2)N(C)CC[C@]315)OCC(C)O4 (some centres unmarked),Hydrolysis in SGF,[1],Trace hydrolysis in 6.75 hours
"COc1ccc2c3c1O[C@H]1C4(CCC5(O)[C@@H](C2)N(C)CC[C@]315)O[C@@H](C)C[C@H](C)O4 (stereo partly drawn) [IVC, oxycodone 2S,4S-pentanediol ketal]",time to almost complete hydrolysis,[2],≤ 8 h
same,"% Oxycodone, % IVA-IVD in hydrolysis mixture",[2]; 0 h,35.8%
same,"% Oxycodone, % IVA-IVD in hydrolysis mixture",[2]; 0.583 h,29.2%
same,"% Oxycodone, % IVA-IVD in hydrolysis mixture",[2]; 1.167 h,26%
same,"% Oxycodone, % IVA-IVD in hydrolysis mixture",[2]; 1.75 h,20.6%
same,"% Oxycodone, % IVA-IVD in hydrolysis mixture",[2]; 2.33 h,17.7%
same,"% Oxycodone, % IVA-IVD in hydrolysis mixture",[2]; 2.92 h,15%
same,"% Oxycodone, % IVA-IVD in hydrolysis mixture",[2]; 4 h,10.3%
same,"% Oxycodone, % IVA-IVD in hydrolysis mixture",[2]; 6.5 h,4%
same,"% Oxycodone, % IVA-IVD in hydrolysis mixture",[2]; 9.75 h,1.5%
same,"% Oxycodone, % IVA-IVD in hydrolysis mixture",[2]; 13.75 h,0%
same,"% Oxycodone, % IVA-IVD in hydrolysis mixture",[2]; 25 h,0%
same,relative rate of hydrolysis,[2],hydrolyzes relatively slowly
same,% IVC in hydrolysis mixture,[2]; 0 h,98.7%
same,% IVC in hydrolysis mixture,[2]; 0.75 h,71.5%
same,% IVC in hydrolysis mixture,[2]; 1.5 h,54%
same,% IVC in hydrolysis mixture,[2]; 3.33 h,18.8%
same,% IVC in hydrolysis mixture,[2]; 6 h,4.7%
same,% IVC in hydrolysis mixture,[2]; 8 h,2.1%
same,"% Oxycodone, % IVA-IVD in hydrolysis mixture",[3]; 0 h,36.2%
same,"% Oxycodone, % IVA-IVD in hydrolysis mixture",[3]; 0.5 h,12.8%
same,"% Oxycodone, % IVA-IVD in hydrolysis mixture",[3]; 1 h,5.9%
same,"% Oxycodone, % IVA-IVD in hydrolysis mixture",[3]; 2 h,0.9%
same,"% Oxycodone, % IVA-IVD in hydrolysis mixture",[3]; 4.35 h,0%
same,"% Oxycodone, % IVA-IVD in hydrolysis mixture",[3]; 10 h,0%
"COc1ccc2c3c1O[C@H]1C4(CCC5(O)[C@@H](C2)N(C)CC[C@]315)O[C@H](C)C[C@@H](C)O4 (stereo partly drawn) [IVD, oxycodone 2R,4R-pentanediol ketal]",hydrolysis of the ketal,"[4]; pH 1, 0 h",0
same,hydrolysis of the ketal,"[4]; pH 1, 0.33 h",55.2
same,hydrolysis of the ketal,"[4]; pH 1, 1 h",89.2
same,hydrolysis of the ketal,"[4]; pH 1, 2 h",98
same,hydrolysis of the ketal,"[4]; pH 1, 4 h",100
same,hydrolysis of the ketal,"[4]; pH 1.5, 0 h",0
same,hydrolysis of the ketal,"[4]; pH 1.5, 0.33 h",14.9
same,hydrolysis of the ketal,"[4]; pH 1.5, 1 h",34.4
same,hydrolysis of the ketal,"[4]; pH 1.5, 2 h",51.9
same,hydrolysis of the ketal,"[4]; pH 1.5, 4 h",80.4
same,hydrolysis of the ketal,"[4]; pH 2, 0 h",0
same,hydrolysis of the ketal,"[4]; pH 2, 0.33 h",4.6
same,hydrolysis of the ketal,"[4]; pH 2, 1 h",13.3
same,hydrolysis of the ketal,"[4]; pH 2, 2 h",24.2
same,hydrolysis of the ketal,"[4]; pH 2, 4 h",40.9
same,hydrolysis of the ketal,"[4]; pH 2.5, 0 h",0
same,hydrolysis of the ketal,"[4]; pH 2.5, 0.33 h",0
same,hydrolysis of the ketal,"[4]; pH 2.5, 1 h",0
same,hydrolysis of the ketal,"[4]; pH 2.5, 2 h",8.4
same,hydrolysis of the ketal,"[4]; pH 2.5, 4 h",14.7
same,hydrolysis of the ketal,"[4]; pH 3, 0 h",0
same,hydrolysis of the ketal,"[4]; pH 3, 0.33 h",0
same,hydrolysis of the ketal,"[4]; pH 3, 1 h",0
same,hydrolysis of the ketal,"[4]; pH 3, 2 h",3.4
same,hydrolysis of the ketal,"[4]; pH 3, 4 h",6.4
same,pH at which hydrolysis of the ketal is fastest,[4]; pH buffers 37° C.,fastest at pH 1
same,time to almost complete hydrolysis,[2],≤ 2 h
same,"% Oxycodone, % IVA-IVD in hydrolysis mixture",[2]; 0 h,17.3%
same,"% Oxycodone, % IVA-IVD in hydrolysis mixture",[2]; 0.583 h,8.6%
same,"% Oxycodone, % IVA-IVD in hydrolysis mixture",[2]; 1.167 h,4.8%
same,"% Oxycodone, % IVA-IVD in hydrolysis mixture",[2]; 1.75 h,2.6%
same,"% Oxycodone, % IVA-IVD in hydrolysis mixture",[2]; 2.33 h,1.5%
same,"% Oxycodone, % IVA-IVD in hydrolysis mixture",[2]; 2.92 h,0.7%
same,"% Oxycodone, % IVA-IVD in hydrolysis mixture",[2]; 4 h,0%
same,"% Oxycodone, % IVA-IVD in hydrolysis mixture",[2]; 6.5 h,0%
same,"% Oxycodone, % IVA-IVD in hydrolysis mixture",[2]; 9.75 h,0%
same,"% Oxycodone, % IVA-IVD in hydrolysis mixture",[2]; 13.75 h,0%
same,"% Oxycodone, % IVA-IVD in hydrolysis mixture",[2]; 25 h,0%
same,relative rate of hydrolysis,[2],hydrolyzes relatively quickly
same,"% Oxycodone, % IVD in hydrolysis mixture",[2]; 0 h,99.8%
same,"% Oxycodone, % IVD in hydrolysis mixture",[2]; 0.17 h,70%
same,"% Oxycodone, % IVD in hydrolysis mixture",[2]; 0.33 h,44.8%
same,"% Oxycodone, % IVD in hydrolysis mixture",[2]; 1 h,10.8%
same,"% Oxycodone, % IVD in hydrolysis mixture",[2]; 2 h,2%
same,"% Oxycodone, % IVA-IVD in hydrolysis mixture",[3]; 0 h,17.6%
same,"% Oxycodone, % IVA-IVD in hydrolysis mixture",[3]; 0.5 h,1.5%
same,"% Oxycodone, % IVA-IVD in hydrolysis mixture",[3]; 1 h,0%
same,"% Oxycodone, % IVA-IVD in hydrolysis mixture",[3]; 2 h,0%
same,"% Oxycodone, % IVA-IVD in hydrolysis mixture",[3]; 4.35 h,0%
same,"% Oxycodone, % IVA-IVD in hydrolysis mixture",[3]; 10 h,0%
